Source: ChEMBL document CHEMBL5346978, “Exploration of Tetrahydroisoquinoline- and Benzo[c]azepine-Based Sphingosine 1-Phosphate Receptor 1 Agonists for the Treatment of Multiple Sclerosis” (J Med Chem, 2023)

Key:
[1] = molecular target: T1, Sphingosine 1-phosphate receptor 1 (Homo sapiens, UniProt P21453); experiment: Agonist activity at S1P1 (unknown origin) expressed in PathHunter CHO-K1 EDG1 beta-arrestin cells assessed as beta-arrestin2 recruitment at 1 uM incubated for 90 mins by chemiluminescence based assay relative to control; assay type: functional, cell-based; conditions: filed as agonist
[2] = molecular target: T1, Sphingosine 1-phosphate receptor 1; experiment: Agonist activity at S1P1 (unknown origin) expressed in human HEK293/Galpha15 cells assessed as Ca2+ activation measured for 2 hrs by FLIPR analysis; assay type: functional, cell-based
[3] = molecular target: T1, Sphingosine 1-phosphate receptor 1; experiment: Agonist activity at S1P1 (unknown origin) expressed in human HEK293/Galpha15 cells assessed as Ca2+ activation at 1 uM measured for 2 hrs by FLIPR analysis relative to control; assay type: functional, cell-based
CYP3A4 = CYP3A4 (Homo sapiens, UniProt P08684); experiment: Inhibition of CYP3A4 in human liver microsomes using midazolam as substrate assessed as residual activity at 10 uM preincubated for 5 mins followed by substrate addition and measured after 15 mins in presence of NADPH by LC-MS/MS analysis; assay type: ADME, Microsome; conditions: probe midazolam, time 20 min, read-out: Activity
[4] = Microsomal stability in mouse liver microsomes assessed as parent compound remaining preincubated for 5 mins followed by NADPH addition measured after 60 mins by LC-MS/MS analysis; assay type: ADME, Microsome; conditions: time 65 min, read-out: Stability
[5] = molecular target: T1, Sphingosine 1-phosphate receptor 1; experiment: Agonist activity at S1P1 (unknown origin) expressed in PathHunter CHO-K1 EDG1 beta-arrestin cells assessed as beta-arrestin2 recruitment incubated for 90 mins by chemiluminescence based assay; assay type: functional, cell-based
[6] = Microsomal stability in rat liver microsomes assessed as parent compound remaining preincubated for 5 mins followed by NADPH addition measured after 60 mins by LC-MS/MS analysis; assay type: ADME, Microsome; conditions: time 65 min, read-out: Stability
[7] = Microsomal stability in human liver microsomes assessed as parent compound remaining preincubated for 5 mins followed by NADPH addition measured after 60 mins by LC-MS/MS analysis; assay type: ADME, Microsome; conditions: time 65 min, read-out: Stability
CYP1A2 = molecular target: T2, CYP1A2 (Homo sapiens, UniProt P05177); experiment: Inhibition of CYP1A2 in human liver microsomes using phenacetin as substrate assessed as residual activity at 10 uM preincubated for 5 mins followed by substrate addition and measured after 15 mins in presence of NADPH by LC-MS/MS analysis; assay type: ADME, Microsome; conditions: probe phenacetin, time 20 min, read-out: Activity
T2 sequence (P05177 whole entry): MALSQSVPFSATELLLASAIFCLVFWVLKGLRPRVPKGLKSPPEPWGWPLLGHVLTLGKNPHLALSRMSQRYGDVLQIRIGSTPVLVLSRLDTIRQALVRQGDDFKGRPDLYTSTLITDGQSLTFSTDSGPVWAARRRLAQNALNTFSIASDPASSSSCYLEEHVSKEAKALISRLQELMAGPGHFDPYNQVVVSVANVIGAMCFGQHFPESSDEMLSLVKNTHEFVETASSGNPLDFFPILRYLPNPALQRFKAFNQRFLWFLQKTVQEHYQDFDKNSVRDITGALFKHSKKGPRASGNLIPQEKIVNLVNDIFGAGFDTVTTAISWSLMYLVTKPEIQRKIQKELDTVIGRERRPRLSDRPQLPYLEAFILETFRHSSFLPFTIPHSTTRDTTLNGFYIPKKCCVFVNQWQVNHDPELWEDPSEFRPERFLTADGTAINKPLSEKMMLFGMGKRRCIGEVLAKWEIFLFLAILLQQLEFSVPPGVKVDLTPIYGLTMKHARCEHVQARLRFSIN

CYP2C9 = CYP2C9 (Homo sapiens, UniProt P11712); experiment: Inhibition of CYP2C9 in human liver microsomes using diclofenac as substrate assessed as residual activity at 10 uM preincubated for 5 mins followed by substrate addition and measured after 15 mins in presence of NADPH by LC-MS/MS analysis; assay type: ADME, Microsome; conditions: probe diclofenac, time 20 min, read-out: Activity
CYP2D6 = CYP2D6 (Homo sapiens, UniProt P10635); experiment: Inhibition of CYP2D6 in human liver microsomes using dextromethorphan as substrate assessed as residual activity at 10 uM preincubated for 5 mins followed by substrate addition and measured after 15 mins in presence of NADPH by LC-MS/MS analysis; assay type: ADME, Microsome; conditions: probe dextromethorphan, time 20 min, read-out: Activity
[8] = Microsomal stability in rat liver microsomes assessed as parent compound remaining preincubated for 5 mins followed by NADPH addition measured after 30 mins by LC-MS/MS analysis; assay type: ADME, Microsome; conditions: time 35 min, read-out: Stability
[9] = Microsomal stability in human liver microsomes assessed as parent compound remaining preincubated for 5 mins followed by NADPH addition measured after 30 mins by LC-MS/MS analysis; assay type: ADME, Microsome; conditions: time 35 min, read-out: Stability
[10] = Microsomal stability in mouse liver microsomes assessed as parent compound remaining preincubated for 5 mins followed by NADPH addition measured after 30 mins by LC-MS/MS analysis; assay type: ADME, Microsome; conditions: time 35 min, read-out: Stability

Sequence of CYP2C9 (P11712 whole entry): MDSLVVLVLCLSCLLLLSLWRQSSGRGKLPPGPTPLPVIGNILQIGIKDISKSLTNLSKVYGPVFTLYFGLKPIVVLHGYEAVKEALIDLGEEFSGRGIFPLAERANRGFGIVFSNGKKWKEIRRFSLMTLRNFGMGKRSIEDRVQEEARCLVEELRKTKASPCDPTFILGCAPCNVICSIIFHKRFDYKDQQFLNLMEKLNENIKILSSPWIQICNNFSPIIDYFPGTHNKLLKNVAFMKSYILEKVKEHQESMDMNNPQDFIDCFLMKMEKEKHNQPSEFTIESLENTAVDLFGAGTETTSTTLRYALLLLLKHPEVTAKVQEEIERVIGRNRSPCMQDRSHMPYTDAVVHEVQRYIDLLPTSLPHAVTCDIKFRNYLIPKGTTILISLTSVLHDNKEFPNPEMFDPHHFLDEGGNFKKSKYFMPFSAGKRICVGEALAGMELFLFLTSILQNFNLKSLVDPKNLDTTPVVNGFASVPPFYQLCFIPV
Sequence of CYP2D6 (P10635 whole entry): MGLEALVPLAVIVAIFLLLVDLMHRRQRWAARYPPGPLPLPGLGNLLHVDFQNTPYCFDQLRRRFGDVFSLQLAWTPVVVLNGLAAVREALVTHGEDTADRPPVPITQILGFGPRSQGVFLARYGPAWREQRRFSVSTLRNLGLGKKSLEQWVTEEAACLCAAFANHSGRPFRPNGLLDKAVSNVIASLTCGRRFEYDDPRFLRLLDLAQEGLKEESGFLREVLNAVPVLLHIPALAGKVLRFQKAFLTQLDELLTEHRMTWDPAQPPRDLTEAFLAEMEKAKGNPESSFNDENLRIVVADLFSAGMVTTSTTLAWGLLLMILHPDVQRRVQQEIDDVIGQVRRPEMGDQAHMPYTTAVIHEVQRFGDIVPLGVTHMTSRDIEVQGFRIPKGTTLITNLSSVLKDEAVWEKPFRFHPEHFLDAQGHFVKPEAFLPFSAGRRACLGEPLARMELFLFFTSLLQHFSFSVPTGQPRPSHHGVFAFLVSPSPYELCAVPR
T1 sequence (P21453 whole entry): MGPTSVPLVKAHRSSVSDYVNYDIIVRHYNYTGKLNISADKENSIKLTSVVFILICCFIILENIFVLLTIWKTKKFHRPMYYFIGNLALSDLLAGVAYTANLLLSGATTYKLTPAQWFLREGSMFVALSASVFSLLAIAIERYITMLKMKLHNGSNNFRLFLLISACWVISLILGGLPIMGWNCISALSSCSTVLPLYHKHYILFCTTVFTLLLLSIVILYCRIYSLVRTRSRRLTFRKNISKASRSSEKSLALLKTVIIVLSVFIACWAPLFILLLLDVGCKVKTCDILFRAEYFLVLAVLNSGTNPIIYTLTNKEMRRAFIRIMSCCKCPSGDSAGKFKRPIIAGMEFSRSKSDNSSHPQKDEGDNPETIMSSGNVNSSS
Sequence of CYP3A4 (P08684 whole entry): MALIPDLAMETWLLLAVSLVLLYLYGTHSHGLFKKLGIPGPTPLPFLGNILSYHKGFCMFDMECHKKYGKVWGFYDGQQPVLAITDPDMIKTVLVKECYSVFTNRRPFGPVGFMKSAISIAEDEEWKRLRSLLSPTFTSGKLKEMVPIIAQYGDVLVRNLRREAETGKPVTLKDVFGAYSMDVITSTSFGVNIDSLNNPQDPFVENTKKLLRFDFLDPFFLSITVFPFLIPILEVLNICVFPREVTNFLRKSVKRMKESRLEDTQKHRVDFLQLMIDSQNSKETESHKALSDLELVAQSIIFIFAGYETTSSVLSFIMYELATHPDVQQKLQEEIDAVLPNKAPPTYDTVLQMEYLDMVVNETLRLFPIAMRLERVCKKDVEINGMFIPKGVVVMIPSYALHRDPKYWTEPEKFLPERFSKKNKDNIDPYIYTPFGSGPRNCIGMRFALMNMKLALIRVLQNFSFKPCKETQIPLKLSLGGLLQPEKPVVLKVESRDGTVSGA

Compound | Activity [1] | EC50 [2] | Activity ([3]; filed as agonist) | activity at 0.25 h, 10 µM (CYP3A4) | remaining at 1 h [4] | EC50 [5] | remaining at 1 h [6] | remaining at 1 h [7] | activity at 0.25 h, 10 µM (CYP1A2) | activity at 0.25 h, 10 µM (CYP2C9) | activity at 0.25 h, 10 µM (CYP2D6) | Activity [3] | remaining at 0.5 h [8] | remaining at 0.5 h [9] | remaining at 0.5 h [10]
CC(C)Oc1ccc(COc2ccc3c(c2)CCN(C(=O)CCC(=O)O)C3C)cc1C#N (configuration not stated) | 40% | 951 nM | 57% |  |  |  |  |  |  |  |  |  |  |  | 
CC(C)Oc1ccc(COc2ccc3c(c2)OCCN(S(=O)(=O)CCCO)C3)cc1C#N | 92% |  | 46% | 92.7% | 9.3% | 73.7 nM | 6.8% | 17.5% | 70.2% | 57.2% | 75.6% |  |  |  | 
CC(C)Oc1ccc(COc2ccc3c(c2)CCN(S(=O)(=O)CCC(=O)O)C3C)cc1C#N (configuration not stated) | 77% |  |  | 92% | 89.7% | 795 nM | 90.8% | 100% | 93.2% | 78.4% | 87.6% | 8% |  |  | 
CC(C)Oc1ccc(COc2ccc3c(n2)CCN(S(=O)(=O)CCC(=O)O)C3)cc1C#N | 82% | 226 nM | 82% | 85.4% |  | 289 nM |  |  | 84.5% | 80.1% | 85.3% |  | 98.1% | 96% | 94.2%
CC(C)Oc1ccc(COc2ccc3c(c2)CCN(C(=O)CC(=O)O)C3)cc1C#N | 42% | 788 nM | 64% |  |  |  |  |  |  |  |  |  |  |  | 
CC(C)Oc1ccc(COc2ccc3c(c2)CCN(C(=O)CCC(=O)O)C3)cc1C#N | 81% | 275 nM | 79% | 26.3% |  | 455 nM |  |  | 59.7% | 27.6% | 54.9% |  | 92.1% | 94.3% | 100%
CC(=O)NCCCC(=O)N1CCc2cc(OCc3ccc(OC(C)C)c(C#N)c3)ccc2C1 | 105% | 1260 nM | 55% |  |  | 424 nM |  |  |  |  |  |  |  |  | 
CC(C)Oc1ccc(COc2ccc3c(c2)CCN(CCCC(=O)O)C3)cc1C#N | 91% | 97.1 nM | 79% |  |  | 98.2 nM |  |  |  |  |  |  |  |  | 
CC(=O)NCCC(=O)N1CCc2cc(OCc3ccc(OC(C)C)c(C#N)c3)ccc2C1 | 117% | 1720 nM | 41% |  |  | 276 nM |  |  |  |  |  |  |  | 29.7% | 14.9%
CC(C)Oc1ccc(COc2ccc3c(n2)CCN(S(=O)(=O)CCCO)C3)cc1C#N | 118% |  |  |  |  | 346 nM |  |  |  |  |  | 10% |  |  | 
CC(C)Oc1ccc(COc2ccc3c(c2)OCCN(S(=O)(=O)CCO)C3)cc1C#N | 96% | 674 nM | 65% |  |  | 22.3 nM |  |  |  |  |  |  |  |  | 
CC(C)Oc1ccc(COc2ccc3c(c2)CCN(C(=O)CCC(=O)N(C)C)C3)cc1C#N | 76% |  |  |  |  | 567 nM |  |  |  |  |  | 25% | 13.9% | 24.4% | 11.4%
CC(C)Oc1ccc(COc2ccc3c(c2)OCCN(S(=O)(=O)CC(=O)O)C3)cc1C#N | 91% | 67 nM | 104% | 84.6% | 87.7% | 50.5 nM | 99.6% | 97.1% | 88.1% | 87% | 91.1% |  |  |  | 
CC(C)Oc1ccc(COc2ccc3c(c2)CCN(CCC(=O)O)C3C)cc1C#N (configuration not stated) | 74% | 524 nM | 69% |  |  | 105 nM |  |  |  |  |  |  |  |  | 
CC(C)Oc1ccc(COc2ccc3c(c2)CCN(C(=O)CCC(N)=O)C3)cc1C#N | 91% | 2260 nM | 47% |  |  | 109 nM |  |  |  |  |  |  |  |  | 
CC(C)Oc1ccc(COc2ccc3c(c2)CCN(CC(=O)O)C3)cc1C#N | 67% | 1.06 nM | 56% |  |  | 695 nM |  |  |  |  |  |  |  |  | 

More lines, now with the values ahead:

Activity [1] | EC50 [2] | Activity ([3]; filed as agonist) | activity at 0.25 h, 10 µM (CYP3A4) | remaining at 1 h [4] | EC50 [5] | remaining at 1 h [6] | remaining at 1 h [7] | activity at 0.25 h, 10 µM (CYP1A2) | activity at 0.25 h, 10 µM (CYP2C9) | activity at 0.25 h, 10 µM (CYP2D6) | Activity [3] | remaining at 0.5 h [8] | remaining at 0.5 h [9] | remaining at 0.5 h [10] | Compound
92% | 89 nM | 85% |  |  | 162 nM |  |  |  |  |  |  |  |  |  | CC(C)Oc1ccc(COc2ccc3c(c2)CCN(S(=O)(=O)CC(=O)O)C3)cc1C#N
103% |  |  |  |  | 59.9 nM |  |  |  |  |  | 9% |  |  |  | COC(=O)CCS(=O)(=O)N1CCc2cc(OCc3ccc(OC(C)C)c(C#N)c3)ccc2C1
88% |  |  |  |  | 184 nM |  |  |  |  |  | 36% |  |  |  | CC(C)Oc1ccc(COc2ccc3c(c2)CCN(C(=O)CCO)C3)cc1C#N
98% |  |  |  |  | 453 nM |  |  |  |  |  | 4% | 18.7% | 18.9% | 14.1% | CC(C)Oc1ccc(COc2ccc3c(c2)CCN(S(=O)(=O)CCC(=O)N(C)C)C3)cc1C#N
122% |  |  |  |  | 252 nM |  |  |  |  |  | 23% | 41.7% | 29.7% | 42.8% | CC(C)Oc1ccc(COc2ccc3c(c2)CCN(C(=O)CCNS(C)(=O)=O)C3)cc1C#N
94% | 46.3 nM | 94% | 87.7% | 85.1% | 25.3 nM | 73.6% | 90.9% | 86.9% | 86.1% | 89.4% |  |  |  |  | CC(C)Oc1ccc(COc2ccc3c(c2)CCCN(S(=O)(=O)CC(=O)O)C3)cc1C#N
107% |  |  |  |  | 362 nM |  |  |  |  |  | 4% | 13.4% | 21.9% | 15.8% | CNC(=O)CCS(=O)(=O)N1CCc2cc(OCc3ccc(OC(C)C)c(C#N)c3)ccc2C1
116% | 618 nM | 68% | 84.7% | 10.7% | 11.1 nM | 13.1% | 15.2% | 85.1% | 53.7% | 79.1% |  |  |  |  | CC(C)Oc1ccc(COc2ccc3c(c2)CCCN(S(=O)(=O)CCO)C3)cc1C#N
98% | 247 nM | 82% | 90.2% |  | 193 nM |  |  | 85.1% | 92.2% | 95.4% |  |  | 99% | 98.7% | CC(C)Oc1ccc(COc2ccc3c(c2)CCN(CCC(=O)O)C3)cc1C#N
109% | 68 nM | 83% | 68.8% | 90.5% | 28.6 nM | 92.9% |  | 71.2% | 70.7% | 73.6% |  |  |  |  | CC(C)Oc1ccc(COc2ccc3c(c2)OCCN(S(=O)(=O)CCC(=O)O)C3)cc1C#N
68% |  |  |  |  | 743 nM |  |  |  |  |  | 6% |  |  |  | CC(C)Oc1ccc(COc2ccc3c(c2)CCN(C(=O)CCCNS(C)(=O)=O)C3)cc1C#N
91% |  | 40% |  |  | 331 nM |  |  |  |  |  |  |  |  |  | COC(=O)CCN1CCc2cc(OCc3ccc(OC(C)C)c(C#N)c3)ccc2C1
82% |  |  |  |  | 1470 nM |  |  |  |  |  | 39% |  |  |  | CNC(=O)CCC(=O)N1CCc2cc(OCc3ccc(OC(C)C)c(C#N)c3)ccc2C1
